Where no end group is shown, it is not given here.
Assays:
Format in all cases: cell-based
Sheep Red Cells = test: lysis of sheep red blood cells (lysis assay or inhibition zone plate assay with SRC); conditions: for LETHAL CONCENTRATION SRC: SRC = Sheep Red Cells, ? indicates turbid zone (melittin gives clear zone); for concentration lytic to sheep red blood cells: stated in running text
Experimental: These values were obtained by either the lysis assay normally used for melittin or by an adaptation of the antibacterial inhibition zone assay of the above-cited Hultmark et al. articles to plates with sheep red cells (SRC). With respect to the latter, sterile agarose plates contained 6 ml of medium with 1% agarose, 0.9% NaCl and 10% SRC suspended in Alsevers solution. A dilution series of peptide was applied in 3mm wells each loaded with 3 µl of the respective samples. The plates were incubated at 30°C for 24 h, the zones were recorded and LC values calculated as described in the Hultmark et al. articles. Clear zones were recorded after a few hours of incubation and the use of such data gave an LC value of the same order as readings after 24 h. This plate assay is faster and more convenient than the lysis assay normally used for melittin.

E. coli D21 = conditions: thin agarose plates, overnight incubation at 30°C
Experimental: (§1) The products of the invention were tested for activity against a variety of test organisms selected to represent a number of different types of pathogens some of them known to be particularly virulent by the inhibition zone assay of Hoffmann et al. (1981) Insect Biochem. 11 537-548. Thin agar or agarose plates (8.5 cm diameter) were prepared with 6 ml of rich medium containing 100 µg/ml of streptomycin and 2 x 10^5 viable cells of a test organism resistant to streptomycin. Wells of […] were punched in the plates and 3 µl of serially diluted samples were placed in the wells. The diameters of the zones of inhibition around the wells were measured after overnight incubation at 30° or 37°C. For each peptide the squares of the zone diameters were plotted against the logarithm of the concentration, and from the slopes and intercepts the lethal concentrations were calculated as described by Hultmark (1983) EMBO J. 2, 571-76 or Hultmark et al. (1982) Eur. J. Biochem. 127 207-217.
(§2) Novel peptides CA(1-8)M(1-18), CA(1-9)M(1-17), CB(1-13)M(1-13), CA(1-17)M(1-9), CA(1-18)M(1-8), M(1-13)CA(1-22) and M(1-13)CA(1-13) were prepared as described above (see Examples 1-6). These novel peptides and CA, CB, and M were tested for activity against a variety of organisms selected to represent a number of different types of pathogens, some of them known to be particularly virulent, by the inhibition zone assay of Hoffmann et al. (1981), Insect Biochem. 11 537-48. As in Examples 1-6, thin agarose plates were prepared with the respective organisms. The diameters of the zones of inhibition were measured after overnight incubation at 30°C. The lethal concentrations were determined as described above (see Examples 1-6; Hultmark et al. articles cited thereat).

S. aureus Cowan I = conditions: thin agarose plates, 30°C, * indicates flat concentration dependence
Experimental: as §1, §2

P. aeruginosa OT97 = conditions: thin agarose plates, overnight incubation at 30°C
Experimental: as §1, §2

B. subtilis Bsll = conditions: overnight incubation at 30°C; for LETHAL CONCENTRATION Bsll + ME: B. subtilis, plates prepared with medium E; for LETHAL CONCENTRATION Bsll: Bsll = B. subtilis, thin agarose plates
Experimental: as §1, §2

S. pyogenes = conditions: thin agarose plates, overnight incubation at 30°C
Experimental: as §1, §2

Compound	LETHAL CONCENTRATION SRC (Sheep Red Cells)	LETHAL CONCENTRATION D21 (E. coli D21) [µM]	LETHAL CONCENTRATION Staph (S. aureus Cowan I)	LETHAL CONCENTRATION OT97 (P. aeruginosa OT97) [µM]	LETHAL CONCENTRATION Bsll + ME (B. subtilis Bsll) [µM]	LETHAL CONCENTRATION Bsll (B. subtilis Bsll) [µM]	LETHAL CONCENTRATION Strep (S. pyogenes) [µM]	fold improvement over natural melittin in lysis of red cells (Sheep Red Cells; compared with melittin)	concentration lytic to sheep red blood cells (Sheep Red Cells) [µM]	concentration lytic to sheep red blood cells (Sheep Red Cells; listed as CA(1-13) M(1-13))
KWKLFKKIEKVGQNIRDGIGAVLKVL-NH2 [CA(1-17)M(1-9)]	>600 µM	0.5	4 µM	5	1	0.5	0.2			
CC[C@H](C)[C@H](NC(=O)CNC(=O)[C@H](CCCNC(=N)N)NC(=O)CNC(=O)[C@H](CCSC)NC(=O)[C@H](CCCCN)NC(=O)[C@H](CCC(=O)O)NC(=O)[C@@H](NC(=O)[C@H](CCCCN)NC(=O)[C@H](CCCCN)NC(=O)[C@H](Cc1ccccc1)NC(=O)[C@@H](NC(=O)[C@H](CCCCN)NC(=O)[C@H](Cc1c[nH]c2ccccc12)NC(=O)[C@@H](N)CCCCN)C(C)C)[C@@H](C)CC)C(=O)NCC(=O)N[C@@H](C)C(=O)N[C@H](C(=O)N[C@@H](CC(C)C)C(=O)N[C@@H](CCCCN)C(=O)N[C@H](C(=O)N[C@@H](CC(C)C)C(=O)N[C@H](C(=O)N[C@H](C(=O)NCC(=O)N[C@@H](CC(C)C)C(N)=O)[C@@H](C)O)[C@@H](C)O)C(C)C)C(C)C [CB(1-13)M(1-13)]	>400 µM	0.3	4 µM	1	0.4	0.4	1			
CC[C@H](C)[C@H](NC(=O)CNC(=O)[C@H](CCC(N)=O)NC(=O)[C@H](CCC(N)=O)NC(=O)[C@H](CCCNC(=N)N)NC(=O)[C@H](CCCCN)NC(=O)[C@H](CCCNC(=N)N)NC(=O)[C@H](CCCCN)NC(=O)[C@@H](NC(=O)[C@H](Cc1c[nH]c2ccccc12)NC(=O)[C@H](CO)NC(=O)[C@@H](NC(=O)[C@@H](N)CC(C)C)[C@@H](C)CC)[C@@H](C)CC)C(=O)NCC(=O)N[C@@H](C)C(=O)N[C@H](C(=O)N[C@@H](CC(C)C)C(=O)N[C@@H](CCCCN)C(=O)N[C@H](C(=O)N[C@@H](CC(C)C)C(=O)N[C@H](C(=O)N[C@H](C(=O)NCC(=O)N[C@@H](CC(C)C)C(N)=O)[C@@H](C)O)[C@@H](C)O)C(C)C)C(C)C [M(16-26)M(1-13)]								40-60 fold	> 240	
KWKLFKKIEKVGQNIRDGGIGAVLKV-NH2 [CA(1-18)M(1-8)]	>600 µM	1	>600 µM	15	20	4	3			
CC[C@H](C)[C@H](NC(=O)CNC(=O)[C@@H](NC(=O)[C@H](CCCCN)NC(=O)[C@H](CCCCN)NC(=O)[C@H](Cc1ccccc1)NC(=O)[C@H](CC(C)C)NC(=O)[C@H](CCCCN)NC(=O)[C@H](Cc1c[nH]c2ccccc12)NC(=O)[C@@H](N)CCCCN)[C@@H](C)CC)C(=O)NCC(=O)N[C@@H](C)C(=O)N[C@H](C(=O)N[C@@H](CC(C)C)C(=O)N[C@@H](CCCCN)C(=O)N[C@H](C(=O)N[C@@H](CC(C)C)C(=O)N[C@H](C(=O)N[C@H](C(=O)NCC(=O)N[C@@H](CC(C)C)C(=O)N1CCC[C@H]1C(=O)N[C@@H](C)C(=O)N[C@@H](CC(C)C)C(=O)N[C@H](C(=O)N[C@@H](CO)C(N)=O)[C@@H](C)CC)[C@@H](C)O)[C@@H](C)O)C(C)C)C(C)C [CA(1-8)M(1-18)]	>600 µM	0.3	1 µM	0.7	0.5	0.4	2			
CC[C@H](C)[C@H](NC(=O)CN)C(=O)NCC(=O)N[C@@H](C)C(=O)N[C@H](C(=O)N[C@@H](CC(C)C)C(=O)N[C@@H](CCCCN)C(=O)N[C@H](C(=O)N[C@@H](CC(C)C)C(=O)N[C@H](C(=O)N[C@H](C(=O)NCC(=O)N[C@@H](CC(C)C)C(=O)N[C@@H](CCCCN)C(=O)N[C@@H](Cc1c[nH]c2ccccc12)C(=O)N[C@@H](CCCCN)C(=O)N[C@@H](CC(C)C)C(=O)N[C@@H](Cc1ccccc1)C(=O)N[C@@H](CCCCN)C(=O)N[C@@H](CCCCN)C(=O)N[C@H](C(=O)N[C@@H](CCC(=O)O)C(=O)N[C@@H](CCCCN)C(=O)N[C@H](C(=O)NCC(=O)N[C@@H](CCC(N)=O)C(=O)N[C@@H](CC(N)=O)C(=O)N[C@H](C(=O)N[C@@H](CCCNC(=N)N)C(=O)N[C@@H](CC(=O)O)C(=O)NCC(=O)N[C@H](C(=O)N[C@H](C(=O)N[C@@H](CCCCN)C(=O)N[C@@H](C)C(N)=O)[C@@H](C)CC)[C@@H](C)CC)[C@@H](C)CC)C(C)C)[C@@H](C)CC)[C@@H](C)O)[C@@H](C)O)C(C)C)C(C)C [M(1-13)CA(1-22)]	40? µM	0.7	5* µM		0.2		1			
CC[C@H](C)[C@H](NC(=O)CNC(=O)[C@H](CCC(N)=O)NC(=O)CNC(=O)[C@@H](NC(=O)[C@H](CCCCN)NC(=O)[C@H](CCC(=O)O)NC(=O)[C@@H](NC(=O)[C@H](CCCCN)NC(=O)[C@H](CCCCN)NC(=O)[C@H](Cc1ccccc1)NC(=O)[C@H](CC(C)C)NC(=O)[C@H](CCCCN)NC(=O)[C@H](Cc1c[nH]c2ccccc12)NC(=O)[C@@H](N)CCCCN)[C@@H](C)CC)C(C)C)C(=O)NCC(=O)N[C@@H](C)C(=O)N[C@H](C(=O)N[C@@H](CC(C)C)C(=O)N[C@@H](CCCCN)C(=O)N[C@H](C(=O)N[C@@H](CC(C)C)C(=O)N[C@H](C(=O)N[C@H](C(=O)NCC(=O)N[C@@H](CC(C)C)C(N)=O)[C@@H](C)O)[C@@H](C)O)C(C)C)C(C)C [CA(1-13)M(1-13)]									> 100	greater than 200 µM
CC[C@H](C)[C@H](NC(=O)CNC(=O)[C@@H]1CCCN1C(=O)CNC(=O)[C@H](C)NC(=O)[C@H](CCCCN)NC(=O)[C@@H](NC(=O)[C@@H](NC(=O)CNC(=O)[C@H](CC(=O)O)NC(=O)[C@H](CCCNC(=N)N)NC(=O)[C@@H](NC(=O)[C@H](CC(N)=O)NC(=O)[C@H](CCC(N)=O)NC(=O)CNC(=O)[C@@H](NC(=O)[C@H](CCCCN)NC(=O)[C@H](CCC(=O)O)NC(=O)[C@@H](NC(=O)[C@H](CCCCN)NC(=O)[C@H](CCCCN)NC(=O)[C@H](Cc1ccccc1)NC(=O)[C@H](CC(C)C)NC(=O)[C@H](CCCCN)NC(=O)[C@H](Cc1c[nH]c2ccccc12)NC(=O)[C@@H](N)CCCCN)[C@@H](C)CC)C(C)C)[C@@H](C)CC)[C@@H](C)CC)[C@@H](C)CC)C(=O)NCC(=O)N[C@@H](C)C(=O)N[C@H](C(=O)N[C@@H](CC(C)C)C(=O)N[C@@H](CCCCN)C(=O)N[C@H](C(=O)N[C@@H](CC(C)C)C(=O)N[C@H](C(=O)N[C@H](C(=O)NCC(=O)N[C@@H](CC(C)C)C(N)=O)[C@@H](C)O)[C@@H](C)O)C(C)C)C(C)C [CA(1-24)M(1-13)]									> 100	
